Laboratory results reported in US10021881B2, “Vaporized administration of pesticides” (priority 2016, dated 2018).

Assays:
Penicillium expansum [1] = experiment: Fogging versus vaporizing treatment of apples, browning of top and bottom wounds; type: in vivo; details: 2.66 g in tunnel, 72 hours at 21° C., evaluated 4 days after removal, FIG. 23
Experimental: An in vivo assay was used to evaluate the ability of vaporized pyrimethanil to control pathogenic infection of apples by Penicillium expansum as compared to fogging methods of apple treatment. Vaporized treatments of apples were performed as previous described in Examples 1-6, with the exception of using a 1 m wide×1 m high×8 m deep tunnel (FIG. 11). A 2.66 g amount of pyrimethanil was either fogged or vaporized into the tunnel. Fruits were exposed to the treatment for 72 hours at 21° C., and then removed from the tunnel and evaluated 4 days after removal in order to observe and/or determine the area of browning wounds at the top and bottom of the fruit (see FIG. 23).

Botrytis cinerea [2] = experiment: In vivo assay of vaporized pyrimethanil to inhibit Botrytis cinerea in grapes; details: for Gray Mold Severity (0-4): scale 0 no disease to 4 exceptionally high
Source text: An in vivo assay was used to evaluate the ability of vaporized pyrimethanil to control pathogenic infection of Table grapes by Botrytis cinerea.

Penicillium expansum [3] = experiment: In vivo assay of vaporized pyrimethanil to inhibit Penicillium expansum in apples
Experimental: An in vivo assay was used to evaluate the ability of vaporized pyrimethanil to control pathogenic infection of apples by Penicillium expansum. […] Each wound was then inoculated with 30 μL of 1×10^6 spores/mL suspension of P. expansum.
Fruits were evaluated in order to observe disease incidence (i.e., browning) and fungal sporulation diameter (both measured in millimeters, mm).

Fusarium sambucinum = experiment: In vitro assay of vaporized pyrimethanil to inhibit pathogenic fungal growth (agar plates); type: cell-based; details: F. sambucinum, 3 days at 23° C.
Experimental: (§1) An in vitro assay was used to evaluate the ability of pyrimethanil to vaporize in order to control the infection of various pathogenic microorganisms when applied to the plants and plant parts. For in vitro experiments, a 12-well microtiter plate, 6-well, or a 10-cm Petri plates each containing 7.5 ml, 16.5 or 22 ml volumes, respectively, of half strength Potato Dextrose Agar (PDA) were prepared. Each well or plate was inoculated with 1 microliter (μL) of 1×10^5 spores/ml of the appropriate pathogenic spore suspension (e.g., Botrytis cinerea, Penicillium expansum, Glomerella cingulata, Penicillium digitatum, Aspergillus flavus, Colletotrichum acutatum, Fusarium sambucinum, and Geotrichum candidum) by spotting the pathogen on the center of the agar well or plate. The inoculated microtiter or Petri plate was then sealed with a breathable film. One set of triplicate plates for each pathogen was placed inside the bottom of an air-tight 36-L desiccator chamber and closed with secure clamps.
(§2) Evaporation of the acetone left behind solid crystals of pyrimethanil.
(§3) The tube of the device was attached to a port on the side of the chamber that allowed airflow of the pyrimethanil vapor into the chamber. The chamber was at room temperature during administration of the pyrimethanil. The chambers were then incubated for three (3) days at 23° C. After incubation, post-treatment growth inhibition of each in vitro pathogen was measured on the inoculated plates and compared to control samples.

Aspergillus flavus = experiment: as above; type: cell-based; details: A. flavus, 3 days at 23° C.
Experimental: as §1, §2, §3

Colletotrichum acutatum = experiment: as above; type: cell-based; details: C. acutatum, 3 days at 23° C.
Experimental: as §1, §2, §3

Botrytis cinerea [4] = experiment: as above; type: cell-based; details: B. cinerea, 3 days at 23° C.
Experimental: as §1, §2, §3

Penicillium expansum [5] = experiment: as above; type: cell-based; details: P. expansum, 3 days at 23° C.
Experimental: as §1, §2, §3

[6] = type: physicochemical
Experimental: This example relates to experiments performed to determine if degradation of pyrimethanil technical compounds observed at high temperatures was due to evaporation. In the present example, seven milligrams (7 mg) of pyrimethanil compounds 1 and 2 were analyzed in air by Thermo Gravity Analysis-Mass Spectrometry (TGA-MS). The pyrimethanil samples were loaded onto a TGA platinum pan of the Q5000 TGA instrument (TA instruments) and using standard TGA test methods as follows: select gas 2 (air), data storage on, ramp at 5° C. per minute to 100° C., isothermal for 180 mins, data storage off, equilibrate at 60° C., and end method. An isothermal method was also performed according to standard methods.
The TGA furnace was closed and purged with helium, then heated from room temperature to about 300° C. at 10° C. per minute. […] An isothermal method was also performed according to standard methods.

[7] = 0.01 mg/L, Day 0 (after 3 days at 21° C.)
[8] = 0.01 mg/L, Day 1 (after 3 days at 21° C.)
[9] = 0.01 mg/L, Day 2 (after 3 days at 21° C.)
[10] = 0.01 mg/L, Day 3 (after 3 days at 21° C.)
[11] = 0.03 mg/L, Day 0 (after 3 days at 21° C.)
[12] = 0.03 mg/L, Day 1 (after 3 days at 21° C.)
[13] = 0.03 mg/L, Day 2 (after 3 days at 21° C.)
[14] = 0.03 mg/L, Day 3 (after 3 days at 21° C.)
[15] = 0.1 mg/L, Day 0 (after 3 days at 21° C.)
[16] = 0.1 mg/L, Day 1 (after 3 days at 21° C.)
[17] = 0.1 mg/L, Day 2 (after 3 days at 21° C.)
[18] = 0.1 mg/L, Day 3 (after 3 days at 21° C.)
[19] = 0.3 mg/L, Day 0 (after 3 days at 21° C.)
[20] = 0.3 mg/L, Day 1 (after 3 days at 21° C.)
[21] = 0.3 mg/L, Day 2 (after 3 days at 21° C.)
[22] = 0.3 mg/L, Day 3 (after 3 days at 21° C.)
[23] = 0.04 mg/L, Day 0 (after 3 days at 21° C.)
[24] = 0.04 mg/L, Day 1 (after 3 days at 21° C.)
[25] = 0.04 mg/L, Day 2 (after 3 days at 21° C.)
[26] = 0.04 mg/L, Day 3 (after 3 days at 21° C.)
[27] = 0.2 mg/L, Day 0 (after 3 days at 21° C.)
[28] = 0.2 mg/L, Day 1 (after 3 days at 21° C.)
[29] = 0.2 mg/L, Day 2 (after 3 days at 21° C.)
[30] = 0.2 mg/L, Day 3 (after 3 days at 21° C.)
[31] = 1 mg/L, Day 0 (after 3 days at 21° C.)
[32] = 1 mg/L, Day 1 (after 3 days at 21° C.)
[33] = 1 mg/L, Day 2 (after 3 days at 21° C.)
[34] = 1 mg/L, Day 3 (after 3 days at 21° C.)

With `Cc1cc(C)nc(Nc2ccccc2)n1` [pyrimethanil, 4,6-Dimethyl-N-phenylpyrimidin-2-amine] the “browning at the bottom of the fruit, vaporized compared with fogged” value (Penicillium expansum [1]) was “much less area (mm) of browning”, the “browning on the top of the fruit, vaporized compared with fogged” value (Penicillium expansum [1]) was “comparable browning” and the “Gray Mold Incidence (%)” value (Botrytis cinerea [2]; [7]) was 100.0%. For the same molecule, the “Gray Mold Severity (0-4)” value (Botrytis cinerea [2]; [7]) was 1.6, the “Gray Mold Incidence (%)” value (Botrytis cinerea [2]; [8]) was 100.0% and the “Gray Mold Severity (0-4)” value (Botrytis cinerea [2]; [8]) was 2.0. For the same molecule, the “Gray Mold Incidence (%)” value (Botrytis cinerea [2]; [9]) was 100.0%, the “Gray Mold Severity (0-4)” value (Botrytis cinerea [2]; [9]) was 2.0 and the “Gray Mold Incidence (%)” value (Botrytis cinerea [2]; [10]) was 100.0%. For the same molecule, the “Gray Mold Severity (0-4)” value (Botrytis cinerea [2]; [10]) was 3.6, the “Gray Mold Incidence (%)” value (Botrytis cinerea [2]; [11]) was 100.0% and the “Gray Mold Severity (0-4)” value (Botrytis cinerea [2]; [11]) was 1.4. The “Gray Mold Incidence (%)” value (Botrytis cinerea [2]; [12]) was 100.0%, the “Gray Mold Severity (0-4)” value (Botrytis cinerea [2]; [12]) was 2.0 and the “Gray Mold Incidence (%)” value (Botrytis cinerea [2]; [13]) was 100.0%. For the same molecule, the “Gray Mold Severity (0-4)” value (Botrytis cinerea [2]; [13]) was 2.0, the “Gray Mold Incidence (%)” value (Botrytis cinerea [2]; [14]) was 100.0% and the “Gray Mold Severity (0-4)” value (Botrytis cinerea [2]; [14]) was 3.4. The “Gray Mold Incidence (%)” value (Botrytis cinerea [2]; [15]) was 94.4%, the “Gray Mold Severity (0-4)” value (Botrytis cinerea [2]; [15]) was 0.5 and the “Gray Mold Incidence (%)” value (Botrytis cinerea [2]; [16]) was 98.1%. The “Gray Mold Severity (0-4)” value (Botrytis cinerea [2]; [16]) was 0.7, the “Gray Mold Incidence (%)” value (Botrytis cinerea [2]; [17]) was 98.1% and the “Gray Mold Severity (0-4)” value (Botrytis cinerea [2]; [17]) was 1.1. The “Gray Mold Incidence (%)” value (Botrytis cinerea [2]; [18]) was 98.1%, the “Gray Mold Severity (0-4)” value (Botrytis cinerea [2]; [18]) was 1.8 and the “Gray Mold Incidence (%)” value (Botrytis cinerea [2]; [19]) was 16.7%. For the same molecule, the “Gray Mold Severity (0-4)” value (Botrytis cinerea [2]; [19]) was 0.1, the “Gray Mold Incidence (%)” value (Botrytis cinerea [2]; [20]) was 94.4% and the “Gray Mold Severity (0-4)” value (Botrytis cinerea [2]; [20]) was 0.5. For the same molecule, the “Gray Mold Incidence (%)” value (Botrytis cinerea [2]; [21]) was 94.4%, the “Gray Mold Severity (0-4)” value (Botrytis cinerea [2]; [21]) was 0.8 and the “Gray Mold Incidence (%)” value (Botrytis cinerea [2]; [22]) was 100.0%. The “Gray Mold Severity (0-4)” value (Botrytis cinerea [2]; [22]) was 1.3, the “Browning (mm)” value (Penicillium expansum [3]; [23]) was 10.6 mm and the “Fungal Sporulation (mm)” value (Penicillium expansum [3]; [23]) was 2.6 mm. The “Browning (mm)” value (Penicillium expansum [3]; [24]) was 16.2 mm, the “Fungal Sporulation (mm)” value (Penicillium expansum [3]; [24]) was 2.1 mm and the “Browning (mm)” value (Penicillium expansum [3]; [25]) was 23.1 mm. For the same molecule, the “Fungal Sporulation (mm)” value (Penicillium expansum [3]; [25]) was 2.8 mm, the “Browning (mm)” value (Penicillium expansum [3]; [26]) was 28.8 mm and the “Fungal Sporulation (mm)” value (Penicillium expansum [3]; [26]) was 3.1 mm. For the same molecule, the “Browning (mm)” value (Penicillium expansum [3]; [27]) was 5.3 mm, the “Fungal Sporulation (mm)” value (Penicillium expansum [3]; [27]) was 0.3 mm and the “Browning (mm)” value (Penicillium expansum [3]; [28]) was 8.1 mm. For the same molecule, the “Fungal Sporulation (mm)” value (Penicillium expansum [3]; [28]) was 0.8 mm, the “Browning (mm)” value (Penicillium expansum [3]; [29]) was 12.7 mm and the “Fungal Sporulation (mm)” value (Penicillium expansum [3]; [29]) was 1.4 mm. For the same molecule, the “Browning (mm)” value (Penicillium expansum [3]; [30]) was 16.2 mm, the “Fungal Sporulation (mm)” value (Penicillium expansum [3]; [30]) was 2.6 mm and the “Browning (mm)” value (Penicillium expansum [3]; [31]) was 3.4 mm. The “Fungal Sporulation (mm)” value (Penicillium expansum [3]; [31]) was 0.1 mm, the “Browning (mm)” value (Penicillium expansum [3]; [32]) was 5.6 mm and the “Fungal Sporulation (mm)” value (Penicillium expansum [3]; [32]) was 0.7 mm. The “Browning (mm)” value (Penicillium expansum [3]; [33]) was 8.8 mm, the “Fungal Sporulation (mm)” value (Penicillium expansum [3]; [33]) was 0.8 mm and the “Browning (mm)” value (Penicillium expansum [3]; [34]) was 11.4 mm. For the same molecule, the “Fungal Sporulation (mm)” value (Penicillium expansum [3]; [34]) was 1.6 mm, the “Mycelial Growth Inhibition (%)” value (Fusarium sambucinum; 0.1 mg/L headspace) was 58.3% and the “Mycelial Growth Inhibition (%)” value (Fusarium sambucinum; 0.3 mg/L headspace) was 89.4%. The “Mycelial Growth Inhibition (%)” value (Fusarium sambucinum; 1 mg/L headspace) was 92.2%, the “Mycelial Growth Inhibition (%)” value (Aspergillus flavus; 0.1 mg/L headspace) was 100.0% and the “Mycelial Growth Inhibition (%)” value (Aspergillus flavus; 0.3 mg/L headspace) was 100.0%. For the same molecule, the “Mycelial Growth Inhibition (%)” value (Aspergillus flavus; 1 mg/L headspace) was 100.0%, the “Mycelial Growth Inhibition (%)” value (Colletotrichum acutatum; 0.1 mg/L headspace) was 100.0% and the “Mycelial Growth Inhibition (%)” value (Colletotrichum acutatum; 0.3 mg/L headspace) was 90.0%. For the same molecule, the “Mycelial Growth Inhibition (%)” value (Colletotrichum acutatum; 1 mg/L headspace) was 89.7%, the “Mycelial Growth Inhibition (%)” value (Botrytis cinerea [4]; 0.1 mg/L headspace) was 91.9% and the “Mycelial Growth Inhibition (%)” value (Botrytis cinerea [4]; 0.3 mg/L headspace) was 92.1%. For the same molecule, the “Mycelial Growth Inhibition (%)” value (Botrytis cinerea [4]; 1 mg/L headspace) was 95.2%, the “Mycelial Growth Inhibition (%)” value (Penicillium expansum [5]; 0.1 mg/L headspace) was 92.4% and the “Mycelial Growth Inhibition (%)” value (Penicillium expansum [5]; 0.3 mg/L headspace) was 100.0%. For the same molecule, the “Mycelial Growth Inhibition (%)” value (Penicillium expansum [5]; 1 mg/L headspace) was 100.0% and the thermal degradation [6] was “no thermal degradation”.
